# From patent US9284333B2, “Fused pyrroledicarboxamides and their use as pharmaceuticals” (SANOFI, priority 2012, dated 2016)
# pIC50: −log10 of the molar value.
# Biological target: Human TASK-1 channels (Homo sapiens (Human), UniProt O14649)
# Assay: Determination of the activity on the TASK-1 channel in Xenopus oocytes (two-microelectrode voltage clamp)
# Type: cell-based
# Details: human TASK-1 expressed in Xenopus oocytes, room temperature; read-out: IC50 value for TASK-1 inhibition
# In short: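 Xenopus oocytes were injected with human TASK-1 cRNA and recorded two days later by two-microelectrode voltage clamp, holding at −90 mV with 500 ms steps to 40 mV. Superfusion used ND96, pH 7.4, at room temperature, with rising compound concentrations; percentage inhibition of control current was fitted to a dose-response curve for IC50.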
# Chain of Human TASK-1 channels (O14649 whole entry): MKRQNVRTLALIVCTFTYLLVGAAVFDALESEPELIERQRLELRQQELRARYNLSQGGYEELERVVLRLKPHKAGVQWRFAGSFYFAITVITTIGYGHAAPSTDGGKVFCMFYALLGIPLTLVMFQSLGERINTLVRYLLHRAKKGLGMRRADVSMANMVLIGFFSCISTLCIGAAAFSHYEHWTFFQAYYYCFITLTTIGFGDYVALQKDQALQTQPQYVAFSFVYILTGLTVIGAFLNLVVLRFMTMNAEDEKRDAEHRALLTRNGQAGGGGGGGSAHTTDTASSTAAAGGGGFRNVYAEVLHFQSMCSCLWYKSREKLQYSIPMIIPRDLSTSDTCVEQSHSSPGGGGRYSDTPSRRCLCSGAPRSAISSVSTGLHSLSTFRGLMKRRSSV
row,Compound,pIC50
1,"CC[C@@H](NC(=O)c1cc(C(=O)N(C)Cc2ccc(F)cc2)n2c1CCCC2)c1ccccc1 [16mu, 5,6,7,8-Tetrahydro-indolizine-1,3-dicarboxylic acid 3-[(4-fluoro-benzyl)-methyl-amide] 1-[((R)-1-phenyl-propyl)-amide]]",7.12
2,"O=C(NC(c1ccccc1)c1ccccc1)c1cc(C(=O)N2CCCC2)n2c1COCC2 [16di, 6-(Pyrrolidine-1-carbonyl)-3,4-dihydro-1H-pyrrolo[2,1-c][1,4]oxazine-8-carboxylic acid benzhydryl-amide]",5.92
3,"CCC(NC(=O)c1cc(C(=O)N[C@H](CC)c2ccccc2)c2n1CCOC2)c1nccs1 (stereo partly drawn) [16ij, 3,4-Dihydro-1H-pyrrolo[2,1-c][1,4]oxazine-6,8-dicarboxylic acid 8-[((R)-1-phenyl-propyl)-amide] 6-[(1-thiazol-2-yl-propyl)-amide]]",6.77
4,"CC[C@@H](NC(=O)c1cc(C(=O)NCC2CC2)n2c1COCC2)c1ccccc1 [16gc, 3,4-Dihydro-1H-pyrrolo[2,1-c][1,4]oxazine-6,8-dicarboxylic acid 6-cyclopropylmethyl-amide 8-[((R)-1-phenyl-propyl)-amide]]",7.00
5,"CC[C@@H](NC(=O)c1cc(C(=O)N2CC3CC3C2)n2c1COCC2)c1ccccc1 (stereo partly drawn) [16fe, 6-(3-Aza-bicyclo[3.1.0]hexane-3-carbonyl)-3,4-dihydro-1H-pyrrolo[2,1-c][1,4]oxazine-8-carboxylic acid ((R)-1-phenyl-propyl)-amide]",6.82
6,"CC[C@@H](NC(=O)c1cc(C(=O)N2CCC[C@@H]2C)n2c1COCC2)c1ccccn1 [16ph, 6-((S)-2-Methyl-pyrrolidine-1-carbonyl)-3,4-dihydro-1H-pyrrolo[2,1-c][1,4]oxazine-8-carboxylic acid ((R)-1-pyridin-2-yl-propyl)-amide]",6.19
7,"C[C@H]1CCCN1C(=O)c1cc(C(=O)NCc2c(F)cccc2F)c2n1CCOC2 [16y, 6-((S)-2-Methyl-pyrrolidine-1-carbonyl)-3,4-dihydro-1H-pyrrolo[2,1-c][1,4]oxazine-8-carboxylic acid 2,6-difluoro-benzylamide]",6.00

# The remaining compounds from weak to strong by pIC50, led by results:
row,pIC50,Compound
1,5.70,"CC[C@@H](NC(=O)c1cc(C(=O)N2CCOCC2)n2c1CCCC2)c1ccccc1 [16nc, 3-(Morpholine-4-carbonyl)-5,6,7,8-tetrahydro-indolizine-1-carboxylic acid ((R)-1-phenyl-propyl)-amide]"
2,6.21,"CC[C@@H](NC(=O)c1cc(C(=O)NCc2cnco2)c2n1CCCC2)c1ccccc1 [16mc, 5,67,8-Tetrahydro-indolizine-1,3-dicarboxylic acid 1-[(oxazol-5-ylmethyl)-amide] 3-[((R)-1-phenyl-propyl)-amide]]"
3,6.27,CCOC(=O)[C@H]1CCCN1C(=O)c1cc(C(=O)N[C@H](CC)c2ccccc2)c2n1CCOC2 [16ff]
4,6.44,"CC[C@@H](NC(=O)c1cc(C(=O)N[C@H](CC)c2cccc(O)c2)n2c1COCC2)c1ccccc1 [16ix, 3,4-Dihydro-1H-pyrrolo[2,1-c][1,4]oxazine-6,8-dicarboxylic acid 6-{[(R)-1-(3-hydroxy-phenyl)-propyl]-amide} 8-[((R)-1-phenyl-propyl)-amide]]"
5,6.96,"CC[C@@H](NC(=O)c1cc(C(=O)NCc2ccccc2)n2c1CCCC2)c1ccccc1 [16nf, 5,6,7,8-Tetrahydro-indolizine-1,3-dicarboxylic acid 3-benzylamide 1-[((R)-1-phenyl-propyl)-amide]]"
6,7.27,"CC[C@@H](NC(=O)c1cc(C(=O)N[C@H](C)c2ccc(F)cc2)n2c1COCC2)c1ccc(C(F)(F)F)cn1 [16eg, 3,4-Dihydro-1H-pyrrolo[2,1-c][1,4]oxazine-6,8-dicarboxylic acid 6-{[(R)-1-(4-fluoro-phenyl)-ethyl]-amide} 8-{[(R)-1-(5-trifluoromethyl-pyridin-2-yl)-propyl]-amide}]"
